The record followed here is patent publication US9297017B2, “Methods and compositions for targeted protein degradation” (University of Washington, priority 2010, dated 2016).

Test [1] deals with T1, COI1/JAZ1 co-receptor (Arabidopsis thaliana, UniProt O04197+Q9LMA8).
T1 construct: Full-length Arabidopsis thaliana COI1 and ASK1 were co-expressed; Full-length JAZ substrate proteins were expressed as 6×His-fusion proteins in Escherichia coli; GST (cleaved yes); 6xHis; made in house; host or cells: Hi5 insect cells (COI1/ASK1); Escherichia coli (JAZ1)
T1 sequence (O04197 1-592): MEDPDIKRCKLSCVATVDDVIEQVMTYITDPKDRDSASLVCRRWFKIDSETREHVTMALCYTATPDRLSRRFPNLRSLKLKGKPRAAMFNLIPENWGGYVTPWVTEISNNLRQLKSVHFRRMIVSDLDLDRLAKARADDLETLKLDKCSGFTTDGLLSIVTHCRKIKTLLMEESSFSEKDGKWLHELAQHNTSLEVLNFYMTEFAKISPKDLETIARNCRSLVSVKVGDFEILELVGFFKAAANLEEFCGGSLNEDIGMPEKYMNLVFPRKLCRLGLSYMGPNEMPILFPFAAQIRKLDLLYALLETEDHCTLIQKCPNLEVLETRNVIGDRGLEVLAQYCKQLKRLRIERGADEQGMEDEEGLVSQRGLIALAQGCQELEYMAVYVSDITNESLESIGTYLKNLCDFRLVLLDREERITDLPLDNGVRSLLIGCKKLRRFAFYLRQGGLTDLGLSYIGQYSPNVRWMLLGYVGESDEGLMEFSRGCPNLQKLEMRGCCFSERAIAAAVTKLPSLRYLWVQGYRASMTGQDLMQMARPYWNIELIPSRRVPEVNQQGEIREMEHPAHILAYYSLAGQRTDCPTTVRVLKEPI
T1 sequence (Q39255 1-160 partner): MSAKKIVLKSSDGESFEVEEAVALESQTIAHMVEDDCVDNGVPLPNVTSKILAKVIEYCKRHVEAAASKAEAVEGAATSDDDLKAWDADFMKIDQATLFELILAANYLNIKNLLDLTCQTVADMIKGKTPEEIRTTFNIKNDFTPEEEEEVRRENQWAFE
T1 sequence (Q9LMA8 1-253): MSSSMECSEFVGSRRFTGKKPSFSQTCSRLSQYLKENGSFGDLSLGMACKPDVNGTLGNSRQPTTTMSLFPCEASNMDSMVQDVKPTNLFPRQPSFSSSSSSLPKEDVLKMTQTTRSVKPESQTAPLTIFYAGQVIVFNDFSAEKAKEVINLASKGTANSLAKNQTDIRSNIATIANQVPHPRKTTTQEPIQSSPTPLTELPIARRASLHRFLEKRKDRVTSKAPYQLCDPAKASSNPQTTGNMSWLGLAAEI
The test can be described thus: Ligand-binding based reconstitution assay (inositol phosphate rescue) with dialyzed COI1/ASK1 and JAZ1. Here is the method:
Radioligand binding was assayed on purified proteins, with 2 mg COI1/ASK1 complex and JAZ proteins at a 1:3 molar ratio. Reactions were prepared in […] final volume and in a binding buffer containing 20 mM Tris-HCl 200 mM NaCl, and 10% glycerol. Saturation binding experiments were conducted with serial dilutions of 3H-coronatine in binding buffer. Nonspecific binding was determined in the presence of […] coronatine. Competition binding experiments were conducted with serial dilutions of JA-Ile in the presence of 100 nM ^3H coronatine with nonspecific binding determined in the presence of […] coronatine. Total binding was determined in the presence of vehicle only. Two-point binding experiments were performed in the presence of 100 nM or 300 nM ^3H-coronatine with nonspecific binding determined in the presence of […] coronatine. Following incubation with mixing at 4° C., all samples were collected with a cell harvester (Brandel, Gaithersburg, Md.) on polyethyleneimine (Sigma)-treated filters. Samples were incubated in liquid scintillation fluid for >1 hour before counting with a Packard Tri-Carb 2200 CA liquid scintillation analyzer (Packard Instrument Co.). Saturation binding experiments were analyzed by nonlinear regression, competition binding experiments by nonlinear regression with Ki calculation as described previously (Cheng 1973), and concentration-response data by sigmoidal dose-response curve fitting, all using GraphPad Prism version 4.00 for MacOSX.
To assess the functional role of Ins(1,2,4,5,6)P5 in the COI1/JAZ1 co-receptor, a protocol was developed for stripping the co-purified InsP5 from COI1 without denaturing the protein. Briefly, proteins were mixed with 10% glycerol and incubated in 2 M ammonium phosphate, 100 mM Bis-Tris propane, pH 7.0, 200 mM NaCl, and 10% glycerol at 4° C. for >24 hours with a minimum of 3× buffer changes at 100× sample volume. Samples were then transferred to 20 mM Tris-HCl, pH 8.0, 200 mM NaCl, and 10% glycerol at 4° C. for >24 hours with a minimum of three buffer changes at 100× sample volume. Inositol phosphate rescue experiments were conducted according to the radioligand binding assays described above in the presence of 300 nM ^3H-coronatine with nonspecific binding determined in the presence of 300 μM coronatine.
The resulting COI1/ASK1 complex was tested in a ligand-binding based reconstitution assay. […] From this reconstitution result, it was concluded that Ins(1,2,4,5,6)P5 binding is crucial for the jasmonate coreceptor to perceive the hormone with high sensitivity.

Test [2] deals with T2, JAZ6F195A/COI1 (Arabidopsis thaliana, UniProt O04197+Q9C9E3, F195A).
T2 construct: Full-length Arabidopsis thaliana COI1 and ASK1 were co-expressed; Full-length JAZ substrate proteins were expressed as 6×His-fusion proteins in Escherichia coli; GST (cleaved yes); 6xHis; made in house; host or cells: Hi5 insect cells (COI1/ASK1); Escherichia coli (JAZ6 F195A)
T2 sequence (O04197 1-592): T1 sequence (O04197 1-592)
T2 sequence (Q9C9E3 1-269 F195A): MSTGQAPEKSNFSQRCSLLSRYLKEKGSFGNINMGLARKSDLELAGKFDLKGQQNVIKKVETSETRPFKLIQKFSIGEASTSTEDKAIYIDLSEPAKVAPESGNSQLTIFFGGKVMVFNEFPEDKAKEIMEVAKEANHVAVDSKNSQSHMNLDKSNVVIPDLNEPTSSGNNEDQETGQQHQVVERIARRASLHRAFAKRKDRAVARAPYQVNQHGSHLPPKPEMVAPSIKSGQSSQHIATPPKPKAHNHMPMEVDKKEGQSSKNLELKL
T2 sequence (Q39255 1-160 partner): T1 sequence (Q39255 1-160 partner)
In words: Binding of 3H-coronatine (300 nM) to JAZ6F195A/COI1. The conditions noted are these: 300 nM 3H-coronatine. An excerpt:
(^3H)-labeled coronatine was synthesized by Amersham. Full-length Arabidopsis thaliana COI1 and ASK1 were co-expressed as a glutathione S-transferase (GST) fusion protein and an untagged protein, respectively, in Hi5 suspension insect cells. The COI1/ASK1 complex was isolated from the soluble cell lysate by glutathione affinity chromatography. After on-column tag cleavage by tobacco etch virus protease, the complex was further purified by anion exchange and gel filtration chromatography and concentrated by ultrafiltration to 12-18 mg ml^−1. Full-length JAZ substrate proteins were expressed as 6×His-fusion proteins in Escherichia coli and purified on Ni-NTA resin with subsequent dialysis into 20 mM Tris-HCl, pH 8.0, 200 mM NaCl, and 10% glycerol.
Radioligand binding was assayed on purified proteins, with 2 mg COI1/ASK1 complex and JAZ proteins at a 1:3 molar ratio. […] Nonspecific binding was determined in the presence of […] coronatine. Competition binding experiments were conducted with serial dilutions of JA-Ile in the presence of 100 nM ^3H coronatine with nonspecific binding determined in the presence of […] coronatine. Total binding was determined in the presence of vehicle only. Two-point binding experiments were performed in the presence of 100 nM or 300 nM ^3H-coronatine with nonspecific binding determined in the presence of 300 mM coronatine. […]

Where two headings read alike, the source gives them in different places.

`CC[C@H]1C=C(C(=O)N[C@@]2(C(=O)O)C[C@@H]2CC)[C@H]2CCC(=O)[C@H]2C1` [coronatine]: the Kd in test [1] (1 μM Ins(1,2,4,5,6)P5, read-out: Kd, saturation binding of 3H-coronatine to dialyzed COI1 in the presence of InsP5) was 0.03 µM; in test [1] (1 μM InsP6, read-out: Kd, saturation binding of 3H-coronatine to dialyzed COI1 in the presence of InsP6), 0.037 µM. Further, the “High affinity interaction with COI1/JAZ6 after mutation of the conserved phenylalanine to alanine” value in test [2] is “abolish the high affinity interaction”.
